Reference: patent publication US8853418B2, “Cyclopentylpyrazoles as N-type calcium channel blockers” (Janssen Pharmaceutica NV, priority 2012, dated 2014)
Where two headings read alike, the source gives them in different places.

Key:
[1] = target: N-type calcium channel (α1B (Cav2.2), β3 and α2δ subunits) (Homo sapiens, UniProt Q00975); test: Functional Assay: Antagonism of N-Type Calcium Channel (FDSS calcium mobilization, KCl depolarization); assay type: cell-based; settings: for IC50: HEK cell line, 50 mM KCl depolarization, six-point concentration-response, read-out: FDSS IC50
Sequence of N-type calcium channel (α1B (Cav2.2), β3 and α2δ subunits) (Q00975 whole entry): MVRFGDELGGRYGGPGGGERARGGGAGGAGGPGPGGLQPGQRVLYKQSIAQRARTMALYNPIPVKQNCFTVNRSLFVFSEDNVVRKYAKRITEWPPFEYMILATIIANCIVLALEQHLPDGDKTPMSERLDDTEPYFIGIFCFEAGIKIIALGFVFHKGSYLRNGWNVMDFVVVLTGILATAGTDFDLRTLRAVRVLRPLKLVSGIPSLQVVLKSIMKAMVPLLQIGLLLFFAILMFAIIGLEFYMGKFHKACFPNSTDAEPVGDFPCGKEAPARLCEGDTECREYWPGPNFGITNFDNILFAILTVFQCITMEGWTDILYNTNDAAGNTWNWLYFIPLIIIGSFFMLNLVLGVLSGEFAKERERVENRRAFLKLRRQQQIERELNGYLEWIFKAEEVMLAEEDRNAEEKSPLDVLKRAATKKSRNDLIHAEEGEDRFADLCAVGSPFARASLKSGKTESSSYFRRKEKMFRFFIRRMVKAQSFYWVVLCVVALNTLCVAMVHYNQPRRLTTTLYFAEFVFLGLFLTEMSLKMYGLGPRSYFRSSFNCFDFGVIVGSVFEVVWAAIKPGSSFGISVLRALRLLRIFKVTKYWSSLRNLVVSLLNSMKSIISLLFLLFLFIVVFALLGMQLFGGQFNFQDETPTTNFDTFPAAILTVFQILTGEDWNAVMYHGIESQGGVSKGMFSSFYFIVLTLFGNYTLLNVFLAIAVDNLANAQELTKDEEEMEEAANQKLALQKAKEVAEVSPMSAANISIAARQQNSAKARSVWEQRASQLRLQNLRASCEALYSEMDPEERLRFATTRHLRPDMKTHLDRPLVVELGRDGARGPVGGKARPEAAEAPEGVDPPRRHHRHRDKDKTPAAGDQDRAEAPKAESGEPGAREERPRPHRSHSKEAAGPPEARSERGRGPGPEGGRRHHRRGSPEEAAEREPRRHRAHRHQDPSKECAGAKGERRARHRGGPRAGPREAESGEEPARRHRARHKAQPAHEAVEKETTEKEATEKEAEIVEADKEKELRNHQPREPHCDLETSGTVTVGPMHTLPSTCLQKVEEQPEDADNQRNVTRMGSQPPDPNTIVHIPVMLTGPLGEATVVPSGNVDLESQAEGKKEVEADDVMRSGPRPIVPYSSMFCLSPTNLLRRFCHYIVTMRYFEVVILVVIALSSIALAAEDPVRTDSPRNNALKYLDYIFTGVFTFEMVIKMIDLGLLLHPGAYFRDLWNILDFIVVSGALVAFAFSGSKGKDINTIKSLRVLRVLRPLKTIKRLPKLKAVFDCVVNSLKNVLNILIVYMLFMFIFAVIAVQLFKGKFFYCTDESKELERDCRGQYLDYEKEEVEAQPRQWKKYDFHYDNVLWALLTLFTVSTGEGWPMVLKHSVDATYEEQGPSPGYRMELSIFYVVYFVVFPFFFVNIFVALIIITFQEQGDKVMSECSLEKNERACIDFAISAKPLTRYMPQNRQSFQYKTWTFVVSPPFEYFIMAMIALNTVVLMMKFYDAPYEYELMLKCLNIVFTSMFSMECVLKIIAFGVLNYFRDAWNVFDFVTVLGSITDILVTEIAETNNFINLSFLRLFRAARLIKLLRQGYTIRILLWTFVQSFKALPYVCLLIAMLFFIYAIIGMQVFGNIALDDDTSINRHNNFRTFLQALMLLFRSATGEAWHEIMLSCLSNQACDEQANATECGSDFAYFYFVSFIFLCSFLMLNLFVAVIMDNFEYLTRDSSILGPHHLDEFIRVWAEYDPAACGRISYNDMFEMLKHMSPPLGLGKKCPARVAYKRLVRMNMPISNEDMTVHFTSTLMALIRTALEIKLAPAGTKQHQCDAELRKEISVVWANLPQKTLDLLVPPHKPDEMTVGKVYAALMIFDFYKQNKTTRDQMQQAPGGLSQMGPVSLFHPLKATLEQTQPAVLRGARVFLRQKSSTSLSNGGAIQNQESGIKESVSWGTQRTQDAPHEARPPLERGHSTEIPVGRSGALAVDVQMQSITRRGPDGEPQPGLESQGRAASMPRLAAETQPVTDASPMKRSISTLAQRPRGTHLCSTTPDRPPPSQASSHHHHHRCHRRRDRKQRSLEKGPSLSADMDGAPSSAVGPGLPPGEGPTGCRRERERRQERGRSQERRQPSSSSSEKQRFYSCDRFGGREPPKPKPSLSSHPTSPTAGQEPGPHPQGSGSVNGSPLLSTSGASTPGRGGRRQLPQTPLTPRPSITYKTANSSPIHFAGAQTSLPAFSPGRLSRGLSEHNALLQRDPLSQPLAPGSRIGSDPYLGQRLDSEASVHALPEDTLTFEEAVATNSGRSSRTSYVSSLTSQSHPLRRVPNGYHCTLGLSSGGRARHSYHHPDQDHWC
Sequence of N-type calcium channel (α1B (Cav2.2), β3 and α2δ subunits) (P54284 whole entry partner): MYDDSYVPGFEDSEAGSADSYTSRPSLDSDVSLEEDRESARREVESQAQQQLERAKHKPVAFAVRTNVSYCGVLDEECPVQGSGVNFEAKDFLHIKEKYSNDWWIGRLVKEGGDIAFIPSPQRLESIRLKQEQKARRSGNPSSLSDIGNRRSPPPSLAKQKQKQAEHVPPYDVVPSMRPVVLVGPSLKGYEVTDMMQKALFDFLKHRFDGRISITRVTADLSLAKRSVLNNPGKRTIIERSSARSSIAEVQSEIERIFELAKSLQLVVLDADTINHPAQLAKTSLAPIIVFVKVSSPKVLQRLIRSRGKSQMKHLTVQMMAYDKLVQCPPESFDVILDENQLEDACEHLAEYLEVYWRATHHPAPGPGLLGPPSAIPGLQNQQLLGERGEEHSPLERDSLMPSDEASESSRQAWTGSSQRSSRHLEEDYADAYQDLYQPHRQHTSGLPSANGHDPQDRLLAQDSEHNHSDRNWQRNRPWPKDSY
Sequence of N-type calcium channel (α1B (Cav2.2), β3 and α2δ subunits) (P54289 25-946 partner limits assumed): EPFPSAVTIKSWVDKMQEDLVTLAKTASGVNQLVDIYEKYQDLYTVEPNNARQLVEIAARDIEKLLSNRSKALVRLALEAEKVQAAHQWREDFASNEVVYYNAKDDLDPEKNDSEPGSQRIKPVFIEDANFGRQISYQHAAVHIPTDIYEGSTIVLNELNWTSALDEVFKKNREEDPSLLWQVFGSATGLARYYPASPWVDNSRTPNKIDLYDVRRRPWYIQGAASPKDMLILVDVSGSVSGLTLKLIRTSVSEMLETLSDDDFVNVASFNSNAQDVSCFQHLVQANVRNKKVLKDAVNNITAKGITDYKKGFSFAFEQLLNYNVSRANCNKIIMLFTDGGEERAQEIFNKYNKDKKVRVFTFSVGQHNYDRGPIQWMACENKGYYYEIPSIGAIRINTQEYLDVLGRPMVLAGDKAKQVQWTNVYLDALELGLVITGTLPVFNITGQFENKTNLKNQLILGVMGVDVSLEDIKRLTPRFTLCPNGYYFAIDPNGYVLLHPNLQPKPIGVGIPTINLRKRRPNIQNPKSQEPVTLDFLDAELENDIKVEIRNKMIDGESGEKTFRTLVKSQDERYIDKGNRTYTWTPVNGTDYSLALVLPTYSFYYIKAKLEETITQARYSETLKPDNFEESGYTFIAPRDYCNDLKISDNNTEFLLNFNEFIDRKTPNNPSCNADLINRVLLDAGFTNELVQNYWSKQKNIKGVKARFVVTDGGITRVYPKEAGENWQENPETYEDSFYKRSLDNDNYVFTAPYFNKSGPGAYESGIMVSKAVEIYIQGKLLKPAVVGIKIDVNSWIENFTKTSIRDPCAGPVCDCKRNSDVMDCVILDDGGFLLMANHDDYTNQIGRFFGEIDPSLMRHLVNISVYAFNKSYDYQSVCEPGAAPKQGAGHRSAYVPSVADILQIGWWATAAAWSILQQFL
Sequence of N-type calcium channel (α1B (Cav2.2), β3 and α2δ subunits) (P54289 947-1103 partner limits assumed): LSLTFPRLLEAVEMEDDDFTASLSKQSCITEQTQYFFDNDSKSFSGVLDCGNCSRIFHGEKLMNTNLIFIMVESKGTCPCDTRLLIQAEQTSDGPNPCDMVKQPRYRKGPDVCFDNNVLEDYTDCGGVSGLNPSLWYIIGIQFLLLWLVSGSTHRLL
In short: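 HEK cells stably co-expressing α1B (Cav2.2), β3 and α2δ were loaded with calcium dye, then given compound with fluorescence recorded for 5 min before 50 mM KCl depolarisation and 3 min more reading. IC50 came from six-point curves of maximal fluorescence, normalised to KCl maximum and buffer minimum.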

N-type calcium channel = N-type calcium channel (Homo sapiens, UniProt Q00975); test: Automated Electrophysiology Assay (QPatch-HT whole-cell patch clamp; low- and high-frequency stimulation); assay type: cell-based
Sequence of N-type calcium channel (Q00975 whole entry): as the sequence (Q00975 whole entry) above
Sequence of N-type calcium channel (P54284 whole entry partner): as the sequence (P54284 whole entry partner) above
Sequence of N-type calcium channel (P54289 25-946 partner limits assumed): as the sequence (P54289 25-946 partner limits assumed) above
Sequence of N-type calcium channel (P54289 947-1103 partner limits assumed): as the sequence (P54289 947-1103 partner limits assumed) above

[2] = 0.1 μM, high-frequency stimulation (15th pulse), read-out: QPatch at High Frequency % Inhibition
[3] = low frequency, 0.1 μM, read-out: QPatch at Low Frequency % Inhibition
[4] = 1 μM, high-frequency stimulation (15th pulse), read-out: QPatch at High Frequency % Inhibition
[5] = low frequency, read-out: QPatch at Low Frequency % Inhibition
[6] = low frequency, 1 μM, read-out: QPatch at Low Frequency % Inhibition
[7] = 0.1 μM, high-frequency stimulation (15th pulse)

SMILES	inhibition at 0.33 µM ([1]; 0.33 μM)	IC50 [1]	inhibition at 0.1 µM (N-type calcium channel; [2])	inhibition at 0.1 µM (N-type calcium channel; [3])	other results
COc1ccccc1-n1nc2c(c1-c1ccc(Cl)cc1)CC1(C2)O[C@@H](C)[C@H](C)O1 [Compound 99, (4′S,5′S)-3-(4-chlorophenyl)-2-(2-methoxyphenyl)-4′,5′-dimethyl-2,6-dihydro-4H-spiro[cyclopenta[c]pyrazole-5,2′-[1,3]dioxolane]]	93%	13 nM	34%	-4%	–
COc1ccccc1-n1nc2c(c1-c1ccc(Cl)cc1)CC1(C2)O[C@H](C)C[C@@H](C)O1 (stereo partly drawn) [Compound 100, (4′R,6′R)-3-(4-chlorophenyl)-2-(2-methoxyphenyl)-4′,6′-dimethyl-2,6-dihydro-4H-spiro[cyclopenta[c]pyrazole-5,2′-[1,3]dioxane]]	101%	4.4 nM	69%	46%	inhibition at 0.01 µM (N-type calcium channel; high-frequency stimulation (15th pulse), read-out: QPatch at High Frequency % Inhibition): 21%; inhibition at 1 µM (N-type calcium channel; [4]): 83%; inhibition at 0.01 µM (N-type calcium channel; [5]): 10%; inhibition at 1 µM (N-type calcium channel; [6]): 72%
COc1ccccc1-n1nc2c(c1-c1ccc(Cl)cc1)CC1(C2)O[C@@H](C)C[C@H](C)O1 (stereo partly drawn) [Compound 101, (4′S,6′S)-3-(4-chlorophenyl)-2-(2-methoxyphenyl)-4′,6′-dimethyl-2,6-dihydro-4H-spiro[cyclopenta[c]pyrazole-5,2′-[1,3]dioxane]]	98%	27 nM	40%	3%	–
COc1ccccc1-n1nc2c(c1-c1ccc(Cl)cc1)CC1(C2)O[C@@H](C)[C@@H](C)O1 (stereo partly drawn) [Compound 102, (4′R,5′S)-3-(4-chlorophenyl)-2-(2-methoxyphenyl)-4′,5′-dimethyl-2,6-dihydro-4H-spiro[cyclopenta[c]pyrazole-5,2′-[1,3]dioxolane]]	97%	7.6 nM	–	–	inhibition at 1 µM (N-type calcium channel; [4]): 58%; inhibition at 1 µM (N-type calcium channel; [6]): 42%
COc1ccccc1-n1nc2c(c1-c1ccc(Cl)cc1)CC1(C2)O[C@@H](C)[C@@H](C)O1 (stereo partly drawn) [Compound 103, (4′R,5′S)-3-(4-chlorophenyl)-2-(2-methoxyphenyl)-4′,5′-dimethyl-2,6-dihydro-4H-spiro[cyclopenta[c]pyrazole-5,2′-[1,3]dioxolane]]	–	4.8 nM	46%	12%	% Inhibition (%) at 0.33 μM ([1]; 0.33 μM): 101%; QPatch at High Frequency % Inhibition (N-type calcium channel; 1 μM, high-frequency stimulation (15th pulse)): 69%; inhibition at 0.01 µM (N-type calcium channel; [5]): -21%; QPatch at Low Frequency % Inhibition (N-type calcium channel; low frequency, 1 μM): 36%
COc1ccccc1-n1nc2c(c1-c1ccc(C#N)cc1)CC(CC(C)C)C2 (stereo not drawn) [Compound 105, 4-[2-(2-methoxyphenyl)-5-(2-methylpropyl)-2,4,5,6-tetrahydrocyclopenta[c]pyrazol-3-yl]benzonitrile]	81%	46 nM	20%	-1%	inhibition at 1 µM (N-type calcium channel; [4]): 40%; inhibition at 1 µM (N-type calcium channel; [6]): 10%
COc1ccccc1-n1nc2c(c1-c1ccc(N(C)C)cc1)CC1(C2)OC(C)(C)C(C)(C)O1 [Compound 107, 4-[2-(2-methoxyphenyl)-4′,4′,5′,5′-tetramethyl-2,6-dihydro-4H-spiro[cyclopenta[c]pyrazole-5,2′-[1,3]dioxolan]-3-yl]-N,N-dimethylaniline]	92%	3 nM	33%	34%	–
CCOc1ccc(-c2c3c(nn2-c2ccccc2OC)CC2(C3)OC(C)(C)C(C)(C)O2)cn1 [Compound 108, 3-(6-ethoxypyridin-3-yl)-2-(2-methoxyphenyl)-4′,4′,5′,5′-tetramethyl-2,6-dihydro-4H-spiro[cyclopenta[c]pyrazole-5,2′-[1,3]dioxolane]]	86%	10 nM	13%	3%	–
COc1ccccc1-n1nc2c(c1-c1ccc(C)nc1)CC1(C2)OC(C)(C)C(C)(C)O1 [Compound 109, 2-(2-methoxyphenyl)-4′,4′,5′,5′-tetramethyl-3-(6-methylpyridin-3-yl)-2,6-dihydro-4H-spiro[cyclopenta[c]pyrazole-5,2′-[1,3]dioxolane]]	84%	19 nM	9%	8%	–
COc1ccccc1-n1nc2c(c1-c1ccc(N(C)C)nc1)CC1(C2)OC(C)(C)C(C)(C)O1 [Compound 110, 5-[2-(2-methoxyphenyl)-4′,4′,5′,5′-tetramethyl-2,6-dihydro-4H-spiro[cyclopenta[c]pyrazole-5,2′-[1,3]dioxolan]-3-yl]-N,N-dimethylpyridin-2-amine]	90%	2.8 nM	1%	-9%	–
COc1ccccc1-n1nc2c(c1-c1ccc(C#N)cc1)CC1(C2)OC(C)(C)C(C)(C)O1 [Compound 111, 4-[2-(2-methoxyphenyl)-4′,4′,5′,5′-tetramethyl-2,6-dihydro-4H-spiro[cyclopenta[c]pyrazole-5,2′-[1,3]dioxolan]-3-yl]benzonitrile]	90%	3.7 nM	21%	-5%	–
COc1ccccc1-n1nc2c(c1-c1ccc(Cl)cc1)CC1(C2)O[C@H]2CCCC[C@H]2O1 (stereo partly drawn) [Compound 112, (3aR,7aS)-3′-(4-chlorophenyl)-2′-(2-methoxyphenyl)-2′,3a,4,5,6,6′,7,7a-octahydro-4′H-spiro[1,3-benzodioxole-2,5′-cyclopenta[c]pyrazole]]	–	–	26%	7%	inhibition at 0.33 µM [1]: 90%
COc1ccccc1-n1nc2c(c1-c1ccc(Cl)cc1)CC1(C2)O[C@H]2CCC[C@@H]2O1 [Compound 113, (3aS,6aS)-3′-(4-chlorophenyl)-2′-(2-methoxyphenyl)-2′,4,5,6,6′,6a-hexahydro-3aH,4′H-spiro[cyclopenta[d][1,3]dioxole-2,5′-cyclopenta[c]pyrazole]]	82%	42 nM	3%	-4%	–
COc1ccccc1-n1nc2c(c1-c1ccc(Cl)cc1)CC1(C2)O[C@H]2CCC[C@H]2O1 (stereo partly drawn) [Compound 114, (3aR,6aS)-3′-(4-chlorophenyl)-2′-(2-methoxyphenyl)-2′,4,5,6,6′,6a-hexahydro-3aH,4′H-spiro[cyclopenta[d][1,3]dioxole-2,5′-cyclopenta[c]pyrazole]]	90%	5 nM	–	–	QPatch at High Frequency % Inhibition (N-type calcium channel; [7]): 65%; QPatch at Low Frequency % Inhibition (N-type calcium channel; low frequency, 0.1 μM): 44%
COc1ccccc1-n1nc2c(c1-c1ccc(Cl)cc1)CC1(C2)O[C@H]2CCC[C@H]2O1 (stereo partly drawn) [Compound 115, (3aR,6aS)-3′-(4-chlorophenyl)-2′-(2-methoxyphenyl)-2′,4,5,6,6′,6a-hexahydro-3aH,4′H-spiro[cyclopenta[d][1,3]dioxole-2,5′-cyclopenta[c]pyrazole]]	–	11 nM	–	–	% Inhibition (%) at 0.33 μM ([1]; 0.33 μM): 85%; QPatch at High Frequency % Inhibition (N-type calcium channel; [7]): 37%; QPatch at Low Frequency % Inhibition (N-type calcium channel; low frequency, 0.1 μM): 8%
COc1ccccc1-n1nc2c(c1-c1ccc(Cl)cc1)CC(N1CCC(F)(F)C1)C2 (stereo not drawn) [Compound 123, 3-(4-chlorophenyl)-5-(3,3-difluoropyrrolidin-1-yl)-2-(2-methoxyphenyl)-2,4,5,6-tetrahydrocyclopenta[c]pyrazole]	91%	19 nM	26%	2%	–
